Assay results published in patent US12459951B2, “Compounds that interact with RAS superfamily proteins for treatment of cancers, inflammatory diseases, rasopathies, and fibrotic disease” (SHY Therapeutics, LLC, priority 2022, dated 2025).

Columns and labels:
[1] = test system: Erk1/2 phosphorylation; experiment: Erk1/2 Phosphorylation Assay (western blot), Panc-1; format: cell-based, human; conditions: at 10 μM, * = activation
Procedure: Protocol for Western Erk1/2 Cell-Based Phosphorylation Assay
This assay is referred to as the “Erk1/2 Phosphorylation Assay” throughout this application.
Cell lines: Human tumor-derived pancreatic cancer cell line Panc-1 (expressing KRas G12D mutant) was purchased from American Type Culture Collection and grown in complete DMEM-High Glucose medium, supplemented with penicillin (100 U/mL), streptomycin (100 μg/mL), and 10% heat-inactivated FBS at 37° C. in a humidified incubator with 5% CO2.
Method 1: Cells were plated at 350000 cells/well density in a 12-well plate, allowed 3 hours to adhere to the plate, then starved in the appropriate medium in the presence of 0.5% FBS overnight. The small molecules to be tested were added to the cells in the final concentration of 10 μM in the presence of 0.3% DMSO for 6 hours incubation at 37° C. For IC50 value determination, serial dilutions of compounds were added to cells under the same conditions. Next, cells were stimulated with 1.5 ng/ml EGF for 15 minutes then cells were lysed with lysis buffer containing 1% Triton X-100, EDTA, and Halt™ Protease & Phosphatase Inhibitor Cocktail (Thermo Scientific). Protein concentration was assessed by BCA protein assay (Thermo Scientific). Phosphorylation level of Erk1/2 was determined by western blot.
Method 2: Cells were plated at 350000 cells/well density in a 12-well plate in 10% FBS. The next day small molecules to be tested were added to the cells in the final concentration of 10 μM in the presence of 0.3% DMSO for 6 hours incubation at 37° C. For IC50 value determination, serial dilutions of compounds were added to cells under the same conditions. Next, cells were lysed with lysis buffer containing 1% Triton X-100, EDTA, and Halt™ Protease & Phosphatase Inhibitor Cocktail (Thermo Scientific). Protein concentration was assessed by BCA protein assay (Thermo Scientific). Phosphorylation level of Erk1/2 was determined by western blot.
Western blot protocol: Equal amounts of protein (15-50 μg) were separated by SDS-PAGE and transferred to nitrocellulose membranes (Invitrogen by Thermo Fisher Scientific). The membrane was stained with Ponceau S Stain (Boston BioProducts) to verify uniform protein loading. Membranes were blocked with 10% milk and phosphorylation levels of Erk1/2 were assessed by incubating overnight at 4° C. with anti-phospho-p44/42 (Thr202/Tyr204) antibody (Cell Signaling) followed by HRP-conjugated secondary antibody (Jackson Immunoresearch, West Grove, PA). Bands were incubated in Amersham ECL Prime Western Blotting Detection Reagent (GE Healthcare) and visualized using the ChemiDoc MP imaging system (Bio-Rad).

[2] = test system: TNF-alpha; experiment: TNF-alpha Quantification Assay (ELISA), LPS-stimulated RAW 264.7; format: cell-based; conditions: Mus musculus, RAW264.7; at 10 μM; read-out: TNFα: % inh.
[3] = test system: MiaPaca-2 (expressing KRAS G12C mutant); experiment: Proliferation Assay (Cell Viability Assay); format: cell-based; conditions: Homo sapiens, MIA PaCa-2; read-out: Proliferation in MiaPaca-2: IC50
Procedure: Protocol for Proliferation Assay
This assay is referred to as the “Proliferation Assay” or “Cell Viability Assay” throughout this application.
Cell lines: Human tumor-derived cell lines were purchased from American Type Culture Collection. Human tumor-derived pancreatic cancer cell line MiaPaca-2 (expressing KRAS G12C mutant) and Panc-1 (expressing KRas G12D mutant), and Human non-small cell lung cancer (NSCLC) cell line A549 (expressing KRas G12S mutant) were grown in complete DMEM-High Glucose medium. Human colon cancer cell line SW-620 (expressing KRas G12V mutant) was grown in RPMI 1640 medium. All cell lines were supplemented with penicillin (100 U/mL), streptomycin (100 μg/mL), and 10% heat-inactivated FBS at 37° C. in a humidified incubator with 5% CO2.
(§1) Method: Cells were plated at 2000 to 5000 cells/well density in 96-wells plate and cultured overnight. Small molecules to be tested were added to the cells in the final concentration of 10 μM in the presence of 0.3% DMSO and 10% FBS and incubated for 2-4 days at 37° C. in a humidified incubator with 5% CO2. For IC50 value determination, serial dilutions of compounds were added to cells under the same conditions.
Assay: At the end of the incubation period, cell viability was determined using the CellTiter 96® Aqueous One Solution Cell Proliferation Assay according to manufacturer specifications (Promega, Madison, WI). The percentage of small molecules inhibition of cellular proliferation was calculated from raw data.
Cell lines: these Human tumor-derived cell lines were purchased from American Type Culture Collection. Human tumor-derived pancreatic cancer cell line MiaPaca-2 (expressing KRAS G12C mutant) and Panc-1 (expressing KRas G12D mutant), and Human non-small cell lung cancer (NSCLC) cell line A549 (expressing KRas G12S mutant), and Human melanoma cell line A375 (wild type Kras) were grown in complete DMEM-High Glucose medium. Human tumor-derived pancreatic cancer cell lines SU86.86 (expressing KRas G12D mutant), BxPC3 (expressing wild type K-Ras), and Human non-small cell lung cancer (NSCLC) cell lines NCI-H441 (expressing KRas G12S mutant), NCI-H1975 (expressing wild type KRas), NCI-H358 (expressing KRas G12C mutant), NCI-H1299 (expressing NRas Q61H mutant), and Human colon cancer cell line SW-620 (expressing KRas G12V mutant), Human triple negative breast cancer cell line HCC-1806 (expressing wild type KRas), and Human tumor-derived multiple myeloma cell line MM.1R (expressing wild type KRAS), were grown in RPMI 1640 medium. Human tumor-derived breast cancer cell line BT-549 (expressing wild type KRAS) was grown in RPMI 1640 medium in the presence of 11.8U insulin. Human tumor-derived pancreatic cancer cell line HPAF-II (expressing KRas G12D mutant), Human triple negative breast cancer cell line BT-20 (expressing wild type KRas), and Human colon cancer cell line LS123 (expressing KRas G12S mutant), were grown in EMEM medium. Human tumor-derived pancreatic cancer cell line CF-PAC1 (expressing KRas G12V mutant) was frown in IMDM medium, and Human colon cancer cell line HT29 (expressing wild type KRas) was grown in McCoy's 5A medium. The colon cancer cell line GP2d (expressing KRas G12D mutant) was purchased from MilliporeSigma and grown in DMEM-High Glucose medium. All cell lines were supplemented with penicillin (100 U/mL), streptomycin (100 μg/mL), and 10% heat-inactivated FBS at 37° C. in a humidified incubator with 5% CO2.
as §1, with “that were” for “to be”, “FBS,” for “FBS”

[4] = test system: IL6; experiment: IL-6 Quantification Assay (ELISA), LPS-stimulated RAW 264.7; format: cell-based; design: inhibition: dose or concentration left out as unconfirmed; conditions: Mus musculus, RAW264.7; read-out: IL-6: % inh.

SMILES | IC50 [3] [nM] | % inh of Erk1/2 phosphorylation in Panc-1 [1] | inhibition at 10 µM [2] [%] | inhibition [4] [%]
Cc1c(-c2ccn(C)n2)cn2nc(-c3nccn3C)nc(Nc3nccn3C)c12 [Compound 106, 5-Methyl-N,2-bis(1-methyl-1H-imidazol-2-yl)-6-(1-methyl-1H-pyrazol-3-yl)pyrrolo[2,1-f][1,2,4]triazin-4-amine] | < 150 | 0 (0% inhibition) | 0 | 50 to 74
COc1cncnc1Nc1nc(-c2nccn2C)nn2cc(-c3ccn(C)n3)c(C)c12 [Compound 107, N-(5-Methoxypyrimidin-4-yl)-5-methyl-2-(1-methyl-1H-imidazol-2-yl)-6-(1-methyl-1H-pyrazol-3-yl)pyrrolo[2,1-f][1,2,4]triazin-4-amine] | < 150 | D* (85-100% activation) | 1 to 24 | 25 to 49
CCc1nc(Nc2nc(-c3nccn3C)nn3cc(-c4ccn(C)n4)c(C)c23)nn1C [Compound 108, N-(5-Ethyl-1-methyl-1H-1,2,4-triazol-3-yl)-5-methyl-2-(1-methyl-1H-imidazol-2-yl)-6-(1-methyl-1H-pyrazol-3-yl)pyrrolo[2,1-f][1,2,4]triazin-4-amine] | 510 to 1000 | A* (1-25% activation) | 0 | 50 to 74
Cc1c(-c2ccn(C)n2)cn2nc(-c3nccn3C)nc(Nc3cn(C(C)C)nn3)c12 [Compound 109, N-(1-Isopropyl-1H-1,2,3-triazol-4-yl)-5-methyl-2-(1-methyl-1H-imidazol-2-yl)-6-(1-methyl-1H-pyrazol-3-yl)pyrrolo[2,1-f][1,2,4]triazin-4-amine] | 510 to 1000 | B* (26-49% activation) | 0 | 50 to 74
COc1cnc(Nc2nc(-c3nccn3C)nn3cc(-c4ccn(C)n4)c(C)c23)cn1 [Compound 110, N-(5-Methoxypyrazin-2-yl)-5-methyl-2-(1-methyl-1H-imidazol-2-yl)-6-(1-methyl-1H-pyrazol-3-yl)pyrrolo[2,1-f][1,2,4]triazin-4-amine] | < 150 | B* (26-49% activation) | 1 to 24 | 1 to 24

Second part, led by results:

IC50 [3] [nM] | SMILES | % inh of Erk1/2 phosphorylation in Panc-1 [1] | inhibition at 10 µM [2] [%] | inhibition [4] [%]
150 to 500 | Cc1c(-c2ccn(C)n2)cn2nc(-c3nccn3C)nc(Nc3ccn(C4CC4)n3)c12 [Compound 111, N-(1-Cyclopropyl-1H-pyrazol-3-yl)-5-methyl-2-(1-methyl-1H-imidazol-2-yl)-6-(1-methyl-1H-pyrazol-3-yl)pyrrolo[2,1-f][1,2,4]triazin-4-amine] | A* (1-25% activation) | 50 to 74 | 75 to 100
< 150 | COc1cccnc1Nc1nc(-c2nccn2C)nn2cc(-c3ccn(C)n3)c(C)c12 [Compound 112, N-(3-Methoxypyridin-2-yl)-5-methyl-2-(1-methyl-1H-imidazol-2-yl)-6-(1-methyl-1H-pyrazol-3-yl)pyrrolo[2,1-f][1,2,4]triazin-4-amine] | A* (1-25% activation) | 0 | 25 to 49
< 150 | Cc1c(-c2ccn(C)n2)cn2nc(-c3nccn3C)nc(Nc3n[nH]c(C4CC4)n3)c12 [Compound 113, N-(5-Cyclopropyl-1H-1,2,4-triazol-3-yl)-5-methyl-2-(1-methyl-1H-imidazol-2-yl)-6-(1-methyl-1H-pyrazol-3-yl)pyrrolo[2,1-f][1,2,4]triazin-4-amine] | D* (85-100% activation) | 25 to 49 | 75 to 100
< 150 | COc1ccnc(Nc2nc(-c3nccn3C)nn3cc(-c4ccn(C)n4)c(C)c23)n1.Cl [Compound 114, N-(4-Methoxypyrimidin-2-yl)-5-methyl-2-(1-methyl-1H-imidazol-2-yl)-6-(1-methyl-1H-pyrazol-3-yl)pyrrolo[2,1-f][1,2,4]triazin-4-amine hydrochloride salt] | B* (26-49% activation) | 50 to 74 | 75 to 100
< 150 | Cc1c(-c2ccn(C)n2)cn2nc(-c3nccn3C)nc(Nc3ncccn3)c12.Cl [Compound 115, 5-Methyl-2-(1-methyl-1H-imidazol-2-yl)-6-(1-methyl-1H-pyrazol-3-yl)-N-(pyrimidin-2-yl)pyrrolo[2,1-f][1,2,4]triazin-4-amine hydrochloride salt] | C (50-84% inhibition) | 0 | 50 to 74
< 150 | Cc1c(-c2ccn(C)n2)cn2nc(-c3nccn3C)nc(Nc3ccncn3)c12.Cl [Compound 116, 5-Methyl-2-(1-methyl-1H-imidazol-2-yl)-6-(1-methyl-1H-pyrazol-3-yl)-N-(pyrimidin-4-yl)pyrrolo[2,1-f][1,2,4]triazin-4-amine hydrochloride salt] | D* (85-100% activation) | 0 | 25 to 49
< 150 | COc1cnc(Nc2nc(-c3nccn3C)nn3cc(-c4ccn(C)n4)c(C)c23)nc1.Cl [Compound 117, N-(5-Methoxypyrimidin-2-yl)-5-methyl-2-(1-methyl-1H-imidazol-2-yl)-6-(1-methyl-1H-pyrazol-3-yl)pyrrolo[2,1-f][1,2,4]triazin-4-amine hydrochloride salt] | B (26-49% inhibition) | 1 to 24 | 1 to 24
